Consider 27 compounds from patent publication US10807952B2 (Achillion Pharmaceuticals, Inc., priority 2015, dated 2020).

Molecules are shown by their SMILES.

In the test the target is Human Factor D (Homo sapiens (Human), UniProt P00746). The test is described as follows: Human Factor D assay (Z-L-Lys-SBzl / DTNB, absorbance at 405 nm). In kind it is biochemical. As to conditions: Table 3; Human Factor D 80 nM, assay of Example 13. How it is done: Human Factor D (purified from human serum, Complement Technology, Inc.) at 80 nM final concentration was incubated with test compound at various concentrations for 5 minutes at room temperature in 50 mM Tris, 1M NaCl, pH 7.5. A synthetic substrate Z-L-Lys-SBzl and DTNB (Ellman's reagent) were added to final concentrations of 100 μM each. […] IC50 values were calculated by nonlinear regression of complement Factor D reaction rates as a function of test compound concentration.
Sequence of Human Factor D (P00746 26-253): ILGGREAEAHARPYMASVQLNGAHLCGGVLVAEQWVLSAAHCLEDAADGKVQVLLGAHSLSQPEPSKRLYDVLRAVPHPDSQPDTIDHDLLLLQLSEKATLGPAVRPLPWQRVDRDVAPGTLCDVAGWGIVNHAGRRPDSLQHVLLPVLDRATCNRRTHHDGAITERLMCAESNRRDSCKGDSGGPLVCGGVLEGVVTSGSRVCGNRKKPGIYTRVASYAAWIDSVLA
In the case of `N#Cc1n[nH]c2ccc(-c3cccc(NC(=O)[C@@H]4C[C@@H](F)CN4C(=O)Cn4nc(C(N)=O)c5ccccc54)c3F)cc12` [Compound 13, 1-(2-((2S,4R)-2-(3-(3-cyano-1H-indazol-5-yl)-2-fluorophenyl-carbamoyl)-4-fluoropyrrolidin-1-yl)-2-oxoethyl)-1H-indazole-3-carboxamide], the IC50 (in general, the concentration at which inhibition is half-maximal) is less than 1 µM.
Compound `C[C@H](O)c1nc2c(Cl)c(-c3cccc(NC(=O)[C@@H]4C[C@@H](F)CN4C(=O)Cn4nc(C(N)=O)c5ccccc54)c3F)ccc2[nH]1` [Compound 14, 1-(2-((2S,4R)-2-((3-(7-Chloro-2-((S)-1-hydroxyethyl)-1H-benzo[d]imidazol-6-yl)-2-fluorophenyl)carbamoyl)-4-fluoropyrrolidin-1-yl)-2-oxoethyl)-1H-indazole-3-carboxamide] displayed an IC50 of less than 1 µM.
In turn, `CC(=O)c1cn(CC(=O)N(C)[C@H](C(=O)Nc2cccc(-c3ccccc3Cl)c2F)[C@@H](C)O)c2ccccc12` [Compound 15, (2S,3R)-2-(2-(3-acetyl-1H-indol-1-yl)-N-methylacetamido)-N-(2′-chloro-2-fluorobiphenyl-3-yl)-3-hydroxybutanamide] yielded an IC50 of 1 to 10 µM.
The result for `CC(=O)c1cn(CC(=O)N[C@H](C(=O)Nc2cccc(Br)n2)[C@@H](C)O)c2ccccc12` [Compound 16, (2S,3R)-2-(2-(3-acetyl-1H-indol-1-yl)acetamido)-N-(6-bromopyridin-2-yl)-3-hydroxybutanamide] reads 1 to 10 µM; that for `NC(=O)c1nn(CC(=O)N2C[C@H](F)C[C@H]2C(=O)Nc2cccc(-c3ccc4[nH]ncc4c3Cl)c2F)c2ccccc12` [Compound 17, 1-(2-((2S,4R)-2-(3-(4-chloro-1H-indazol-5-yl)-2-fluorophenyl-carbamoyl)-4-fluoropyrrolidin-1-yl)-2-oxoethyl)-1H-indazole-3-carboxamide], less than 1 µM.
Compound `CC(=O)c1nc2ccc(-c3cccc(NC(=O)[C@@H]4C[C@@H](F)CN4C(=O)Cn4nc(C(N)=O)c5ccccc54)c3F)c(Cl)c2[nH]1` [Compound 18, 1-(2-((2S,4R)-2-(3-(2-acetyl-7-chloro-1H-benzo[d]imidazol-6-yl)-2-fluorophenyl-carbamoyl)-4-fluoropyrrolidin-1-yl)-2-oxoethyl)-1H-indazole-3-carboxamide] gave an IC50 of less than 1 µM.
The compound `NC(=O)c1nn(CC(=O)N2C[C@H](F)C[C@H]2C(=O)Nc2cccc(-c3ccccc3Cl)c2F)c2cc(Cn3cc(C4CC4)nn3)sc12` [Compound 19, 1-(2-((2S,4R)-2-((2′-Chloro-2-fluoro-[1,1′-biphenyl]-3-yl)carbamoyl)-4-fluoropyrrolidin-1-yl)-2-oxoethyl)-5-((4-cyclopropyl-1H-1,2,3-triazol-1-yl)methyl)-1H-thieno[3,2-c]pyrazole-3-carboxamide] gave an IC50 of less than 1 µM.
In turn, `Cn1cnc2c(Cl)c(-c3cccc(NC(=O)[C@@H]4C[C@@H](F)CN4C(=O)Cn4nc(C(N)=O)c5ccccc54)c3F)ccc21` [Compound 20, 1-(2-((2S,4R)-2-(3-(4-chloro-1-methyl-1H-benzo[d]imidazol-5-yl)-2-fluorophenyl-carbamoyl)-4-fluoropyrrolidin-1-yl)-2-oxoethyl)-1H-indazole-3-carboxamide] showed a half-inhibitory concentration (IC50) of less than 1 µM.
As to `NC(=O)c1cccc(CC(=O)N2C[C@H](F)C[C@H]2C(=O)Nc2cccc(-c3ccccc3Cl)c2F)c1` [Compound 21, (2S,4R)-1-(2-(3-carbamoylphenyl)acetyl)-N-(2′-chloro-2-fluorobiphenyl-3-yl)-4-fluoropyrrolidine-2-carboxamide], the IC50 was less than 1 µM.
In turn, `NC(=O)c1cc(CC(=O)N2C[C@H](F)C[C@H]2C(=O)Nc2cccc(-c3ccccc3Cl)c2F)ccc1Cl` [Compound 22, (2S,4R)-1-(2-(3-carbamoyl-4-chlorophenyl)acetyl)-N-(2′-chloro-2-fluorobiphenyl-3-yl)-4-fluoropyrrolidine-2-carboxamide] displayed an IC50 of 1 to 10 µM.
`N#Cc1cc(CC(=O)N2C[C@H](F)C[C@H]2C(=O)Nc2cccc(-c3ccccc3Cl)c2F)ccc1Cl` [Compound 23, (2S,4R)-N-(2′-chloro-2-fluorobiphenyl-3-yl)-1-(2-(4-chloro-3-cyanophenyl)acetyl)-4-fluoropyrrolidine-2-carboxamide] came in with an IC50 of 1 to 10 µM.
The compound `N#Cc1cccc(CC(=O)N2C[C@H](F)C[C@H]2C(=O)Nc2cccc(-c3ccccc3Cl)c2F)c1` [Compound 24, (2S,4R)-N-(2′-chloro-2-fluorobiphenyl-3-yl)-1-(2-(3-cyanophenyl)acetyl)-4-fluoropyrrolidine-2-carboxamide] yielded an IC50 of less than 1 µM.
To `NC(=O)c1nn(CC(=O)N2C[C@H](F)C[C@H]2C(=O)Nc2cccc(-c3ccc4cc[nH]c4c3)c2F)c2ccccc12` [Compound 25, 1-(2-((2S,4R)-4-fluoro-2-(2-fluoro-3-(1H-indol-6-yl)phenylcarbamoyl)pyrrolidin-1-yl)-2-oxoethyl)-1H-indazole-3-carboxamide] belongs less than 1 µM.
As to `NC(=O)c1nn(CC(=O)N2C[C@H](F)C[C@H]2C(=O)Nc2cccc(-c3ccc4nc(N)[nH]c4c3Cl)c2F)c2ccccc12` [Compound 26, 1-(2-((2S,4R)-2-(3-(2-amino-7-chloro-1H-benzo[d]imidazol-6-yl)-2-fluorophenyl-carbamoyl)-4-fluoropyrrolidin-1-yl)-2-oxoethyl)-1H-indazole-3-carboxamide], the IC50 was less than 1 µM.
The result for `NC(=O)c1nn(CC(=O)N2C[C@H](F)C[C@H]2C(=O)Nc2cccc(-c3ccc4cn[nH]c4c3)c2F)c2ccccc12` [Compound 28, 1-(2-((2S,4R)-4-fluoro-2-(2-fluoro-3-(1H-indazol-6-yl)phenylcarbamoyl)pyrrolidin-1-yl)-2-oxoethyl)-1H-indazole-3-carboxamide] reads less than 1 µM; that for `NC(=O)c1nn(CC(=O)N2C[C@H](F)C[C@H]2C(=O)Nc2cccc(Br)n2)c2cc(Cn3cc(C4CC4)nn3)sc12` [Compound 29, 1-(2-((2S,4R)-2-(6-bromopyridin-2-ylcarbamoyl)-4-fluoropyrrolidin-1-yl)-2-oxoethyl)-5-((4-cyclopropyl-1H-1,2,3-triazol-1-yl)methyl)-1H-thieno[3,2-c]pyrazole-3-carboxamide], less than 1 µM.
Consider `CC(=O)c1cn(CC(=O)OC(C)(C)C)c2cc(-c3cccc(NC(=O)[C@@H]4C[C@@H](F)CN4C(=O)Cn4nc(C(N)=O)c5ccccc54)c3F)ccc12` [Compound 30, tert-butyl 2-(3-acetyl-6-(3-((2S,4R)-1-(2-(3-carbamoyl-1H-indazol-1-yl)acetyl)-4-fluoropyrrolidine-2-carboxamido)-2-fluorophenyl)-1H-indol-1-yl)acetate], for which the IC50 fell in the range of 1 to 10 µM.
On to `CC(=O)c1cn(CC(=O)O)c2cc(-c3cccc(NC(=O)[C@@H]4C[C@@H](F)CN4C(=O)Cn4nc(C(N)=O)c5ccccc54)c3F)ccc12` [Compound 31, 2-(3-acetyl-6-(3-((2S,4R)-1-(2-(3-carbamoyl-1H-indazol-1-yl)acetyl)-4-fluoropyrrolidine-2-carboxamido)-2-fluorophenyl)-1H-indol-1-yl)acetic acid], for which the IC50 fell in the range of 1 to 10 µM.
On to `N#Cc1n[nH]c2cc(-c3cccc(NC(=O)[C@@H]4C[C@@H](F)CN4C(=O)Cn4nc(C(N)=O)c5ccccc54)c3F)ccc12` [Compound 32, 1-(2-((2S,4R)-2-(3-(3-cyano-1H-indazol-6-yl)-2-fluorophenyl-carbamoyl)-4-fluoropyrrolidin-1-yl)-2-oxoethyl)-1H-indazole-3-carboxamide], for which the IC50 was less than 1 µM.
For the compound `NC(=O)c1nn(CC(=O)N2C[C@H](F)C[C@H]2C(=O)Nc2cccc(-c3ccccc3Cl)c2F)c2cc(C(F)(F)F)sc12` [Compound 33, 1-(2-((2S,4R)-2-(2′-chloro-2-fluorobiphenyl-3-ylcarbamoyl)-4-fluoropyrrolidin-1-yl)-2-oxoethyl)-5-(trifluoromethyl)-1H-thieno[3,2-c]pyrazole-3-carboxamide], the IC50 is less than 1 µM.
As to `NC(=O)c1ccc(Cl)c(-c2cccc(NC(=O)[C@@H]3C[C@@H](F)CN3C(=O)Cn3nc(C(N)=O)c4sc(C(F)(F)F)cc43)c2F)c1` [Compound 39, 1-(2-((2S,4R)-2-((5′-Carbamoyl-2′-chloro-2-fluoro-[1,1′-biphenyl]-3-yl)carbamoyl)-4-fluoropyrrolidin-1-yl)-2-oxoethyl)-5-(trifluoromethyl)-1H-thieno[3,2-c]pyrazole-3-carboxamide], the IC50 was less than 1 µM.
In turn, `NC(=O)c1nn(CC(=O)N2C[C@H](F)C[C@H]2C(=O)Nc2cccc(Br)n2)c2cc(S(F)(F)(F)(F)F)ccc12` [Compound 40, 1-(2-((2S,4R)-2-((6-Bromopyridin-2-yl)carbamoyl)-4-fluoropyrrolidin-1-yl)-2-oxoethyl)-6-(pentafluoro-λ^6-sulfanyl)-1H-indazole-3-carboxamide] had an IC50 of less than 1 µM.
Regarding `O=C(Nc1cccc(-c2ccccc2Cl)c1F)[C@@H]1C[C@@H](F)CN1C(=O)Cc1cccc(Br)n1` [Compound 41, (2S,4R)-1-(2-(6-bromopyridin-2-yl)acetyl)-N-(2′-chloro-2-fluorobiphenyl-3-yl)-4-fluoropyrrolidine-2-carboxamide], the IC50 was in the range of 1 to 10 µM.
As for `O=C(Nc1cccc(-c2ccccc2Cl)c1F)[C@@H]1C[C@@H](F)CN1C(=O)Cc1cccc(Cl)c1` [Compound 42], the IC50 was less than 1 µM.
Compound `NC(=O)c1nn(CC(=O)N2C[C@H](F)C[C@H]2C(=O)Nc2cccc(-c3ccc4nc(F)[nH]c4c3Cl)c2F)c2ccccc12` [Compound 44, 1-(2-((2S,4R)-2-(3-(7-chloro-2-fluoro-1H-benzo[d]imidazol-6-yl)-2-fluorophenyl-carbamoyl)-4-fluoropyrrolidin-1-yl)-2-oxoethyl)-1H-indazole-3-carboxamide] returned an IC50 of less than 1 µM.
On to `NC(=O)c1nn(CC(=O)N2C[C@H](F)C[C@H]2C(=O)Nc2cccc(-c3ccccc3Cl)c2F)c2cc(S(F)(F)(F)(F)F)ccc12` [Compound 45], for which the IC50 is less than 1 µM.
As for `NC(=O)c1nn(CC(=O)N2C[C@H](F)C[C@H]2C(=O)Nc2cccc(C(=O)Nc3nc4cccc(Cl)c4[nH]3)c2F)c2ccccc12` [Compound 46], the IC50 is less than 1 µM.
